Reference: patent US20240207427A1, “SELECTIVE DRUG RELEASE FROM INTERNALIZED CONJUGATES OF BIOLOGICALLY ACTIVE COMPOUNDS” (priority 2021, published 2024)
Where two headings read alike, the source gives them in different places.

How the values were obtained:
Format in all cases: cell-based
[1] = test system: B-lymphocyte cancer cells (SU-DHL4); assay: In vitro potency (CellTiter-Glo, 96 h), SU-DHL-4; details: Homo sapiens, SU-DHL-4, 96 h
Summary of the method: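 IC50 (ng/mL or nmol/L) derived from CellTiter-Glo luminescence after 96 h exposure at 37 °C to serial dilutions of ADC or CPT free drug. Log-phase cells had been plated 24 h beforehand in RPMI 1640 containing 20% FBS.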

[2] = test system: anaplastic large cell lymphoma cells (DEL); assay: In vitro potency (CellTiter-Glo, 96 h), DEL
Summary of the method: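 Four-day continuous exposure at 37 °C to serially diluted ADC or free camptothecin payload, in RPMI 1640 with 20% FBS after 24 h pre-plating. Luminescent signal gave IC50 (ng/mL; nmol/L).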

Ls174T cells = assay: In vitro potency (CellTiter-Glo, 96 h), Ls174T; details: Homo sapiens, LS174T
Summary of the method: (§1)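 Growth inhibition after 96 h at 37 °C with test article, measured by luminescence; cells in RPMI 1640, 20% FBS.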

[3] = test system: anaplastic large cell lymphoma cells (DELBVR); assay: In vitro potency (CellTiter-Glo, 96 h), DELBVR
Summary of the method: as §1

[4] = test system: Hodgkin's lymphoma cells (L540cy); assay: In vitro potency (CellTiter-Glo, 96 h), L540cy
Summary of the method: as §1

[5] = test system: renal carcinoma cells (786-O); assay: In vitro potency (CellTiter-Glo, 96 h), 786-O; details: Homo sapiens, 786-0, 96 h
Summary of the method: as §1

[6] = test system: breast cancer cells (MDA-MB-231); assay: In vitro potency (CellTiter-Glo, 96 h), MDA-MB-231; details: Homo sapiens, MDA-MB-231, 96 h
Summary of the method: as §1

[7] = test system: non-small-cell lung cancer cells (Calu1); assay: In vitro potency (CellTiter-Glo, 96 h), Calu1; details: Homo sapiens, Calu-1, 96 h
Description: (§2) In vitro potency was assessed on multiple cancer cell lines. All cell lines were authenticated by STR profiling at IDEXX Bioresearch and cultured for no more than 2 months after resuscitation. Cells cultured in log-phase growth were seeded for 24 hours in 96-well plates containing […] RPMI 1640 supplemented with 20% FBS. Serial dilutions of antibody-drug conjugates in cell culture media were prepared at 4× working concentrations, and 50 μL of each dilution was added to the 96-well plates. Following addition of test articles, cells were incubated with test articles for 4 days at 37 0° C. After 96 hours, growth inhibition was assessed by CellTiterGlo® (Promega, Madison, WI) and luminescence was measured on a plate reader.
In Table 7, IC50 values for ADCs are given in ng/mL. Cell viability was determined by CellTiter-Glo staining after 96 h exposure to ADC. ND=Not Determined. Ag2 is an antibody targeting a ubiquitous and readily internalizable antigen. The cancer cell lines tested are renal carcinoma cells (786-0), melanoma cells (A2058), pancreatic cancer cells (BxPC3), non-small-cell lung cancer cells (Calu1), anaplastic large cell lymphoma cells (DEL, DELBVR, Karpas299), Hodgkin's lymphoma cells (L540cy), (Ls174T), breast cancer cells (MDA-MB-231), acute myeloid leukemia cells (MOLM-13), and B-lymphocyte cancer cells (SU-DHL4).
as §2, with “FBS.” for “FBS. Serial dilutions of antibody-drug conjugates in cell culture media were prepared at 4× working concentrations, and 50 μL of each dilution was added to the 96-well plates.”
Cell viability was determined by CellTiter-Glo staining after 96 h exposure to the compound. ND=Not Determined. The cancer cell lines tested are renal carcinoma cells (786-0), melanoma cells (A2058), pancreatic cancer cells (BxPC3), non-small-cell lung cancer cells (Calu1), anaplastic large cell lymphoma cells (DEL, DELBVR, Karpas299), Hodgkin's lymphoma cells (L540cy), (Ls 174T), breast cancer cells (MDA-MB-231), acute myeloid leukemia cells (MOLM-13), B-lymphocyte cancer cells (SU-DHL4), multiple myeloma cells (MM.1R), (U266), and melanoma cells (SK-MEL-5).
as §2, with “37°” for “37 0°”
In the following Tables IC50 values for ADCs and CPT free drugs are given in ng/mL and nmol/L concentrations. Cell viability was determined by CellTiter-Glo staining after 96 h exposure to ADC or CPT free drug.
Cell viability was determined by CellTiter-Glo staining after 96 h exposure to ADC. ND=Not Determined.

melanoma cells (A2058) = assay: In vitro potency (CellTiter-Glo, 96 h), A2058; details: Homo sapiens, A2058, 96 h
Summary of the method: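 Authenticated lines (STR), used within 2 months of resuscitation, were seeded 24 h before treatment. Exposure to ADC dilutions lasted 96 h at 37 °C in RPMI 1640 with 20% FBS; viability was quantified luminescently.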

[8] = test system: pancreatic cancer cells (BxPC3); assay: In vitro potency (CellTiter-Glo, 96 h), BxPC3; details: Homo sapiens, BXPC-3, 96 h
Summary of the method: (§3)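 Log-phase cells were seeded for 24 h in RPMI 1640 with 20% FBS, then exposed to serially diluted antibody-drug conjugates or free camptothecin drug for 4 days at 37 °C. Growth inhibition was read by luminescence, and IC50 values were reported in ng/mL and nmol/L.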

[9] = test system: acute myeloid leukemia cells (MOLM-13); assay: In vitro potency (CellTiter-Glo, 96 h), MOLM-13; details: Homo sapiens, MOLM-13, 96 h
Summary of the method: as §3

[10] = test system: anaplastic large cell lymphoma cells (Karpas299); assay: In vitro potency (CellTiter-Glo, 96 h), Karpas299; details: Homo sapiens, KARPAS-299, 96 h
Summary of the method: as §1

[11] = CPT free drugs, Table 24, CellTiter-Glo after 96 h exposure, read-out: IC50 (nmol/L) SU-DHL-4
[12] = CPT free drugs, Table 24, CellTiter-Glo after 96 h exposure, read-out: IC50 (nmol/L) DEL
[13] = CPT free drugs, Table 24, CellTiter-Glo after 96 h exposure, read-out: IC50 (nmol/L) Ls174T
[14] = CPT free drugs, Table 24, CellTiter-Glo after 96 h exposure, read-out: IC50 (nmol/L) DELBVR
[15] = CPT free drugs, Table 24, CellTiter-Glo after 96 h exposure, read-out: IC50 (nmol/L) L540cy
[16] = CPT free drugs, Table 24, CellTiter-Glo after 96 h exposure, read-out: IC50 (nmol/L) 786-O
[17] = CPT free drugs, Table 24, CellTiter-Glo after 96 h exposure, read-out: IC50 (nmol/L) MDAMB231
[18] = CPT free drugs, Table 24, CellTiter-Glo after 96 h exposure, read-out: IC50 (nmol/L) Calu1
[19] = CPT free drugs, Table 24, CellTiter-Glo after 96 h exposure, read-out: IC50 (nmol/L) A2058
[20] = CPT free drugs, Table 24, CellTiter-Glo after 96 h exposure, read-out: IC50 (nmol/L) BxPC3
[21] = CPT free drugs, Table 24, CellTiter-Glo after 96 h exposure, read-out: IC50 (nmol/L) MOLM-13
[22] = CPT free drugs, Table 24, CellTiter-Glo after 96 h exposure, read-out: IC50 (nmol/L) Karpas299

| SMILES | IC50 [1, 11] | IC50 [2, 12] | IC50 (Ls174T cells; [13]) | IC50 [3, 14] | IC50 [4, 15] | IC50 [5, 16] | IC50 [6, 17] | IC50 [7, 18] | IC50 (melanoma cells (A2058); [19]) | IC50 [8, 20] | IC50 [9, 21] | IC50 [10, 22] | IC50 ([7]; read-out: Calu1 IC50) | IC50 (melanoma cells (A2058); read-out: A2058 IC50) | also measured |
| --- | --- | --- | --- | --- | --- | --- | --- | --- | --- | --- | --- | --- | --- | --- | --- |
| CC[C@@]1(O)C(=O)OCc2c1cc1n(c2=O)Cc2c-1nc1cc3c(cc1c2CN)OCO3 [AMDCPT, (5S)-14-(aminomethyl)-5-ethyl-5-hydroxy-7,18,20-trioxa-11,24-diazahexacyclo[11.11.0.02,11.04,9.015,23.017,21]tetracosa-1(13),2,4(9),14,16,21,23-heptaene-6,10-dione, reference compound] | 1 nmol/L | 0.4 nmol/L | 1 nmol/L | 0.8 nmol/L | 1 nmol/L | 1.9 nmol/L | 1.4 nmol/L | 14.4 nmol/L | 0.7 nmol/L | 3.6 nmol/L | 4.3 nmol/L | 1.8 nmol/L | – | – | IC50 ([1]; camptothecin free drug, 96 h, read-out: SU-DHL-4 IC50): 2 nmol/L; IC50 ([2]; camptothecin free drug, read-out: DEL IC50): 1 nmol/L; IC50 ([3]; camptothecin free drug, read-out: DELBVR IC50): 1 nmol/L; IC50 ([4]; camptothecin free drug, read-out: L540cy IC50): 1 nmol/L; IC50 ([5]; camptothecin free drug, 96 h, read-out: 786-O IC50): 3 nmol/L; IC50 ([6]; camptothecin free drug, 96 h, read-out: MDAMB231 IC50): 21 nmol/L; IC50 ([7]; camptothecin free drug, 96 h, read-out: Calu1 IC50): 52 nmol/L; IC50 (melanoma cells (A2058); camptothecin free drug, 96 h, read-out: A2058 IC50): 3 nmol/L; IC50 ([8]; camptothecin free drug, 96 h, read-out: BxPC3 IC50): 3 nmol/L; IC50 ([9]; camptothecin free drug, 96 h, read-out: MOLM-13 IC50): 20 nmol/L; IC50 ([10]; camptothecin free drug, 96 h, read-out: Karpas299 IC50): 2 nmol/L |
| CC[C@@]1(O)C(=O)OCc2c1cc1n(c2=O)Cc2c-1nc1ccc(C)cc1c2CN [Compound 2a] | 4 nmol/L | 1 nmol/L | 3.9 nmol/L | 3 nmol/L | 4 nmol/L | 7 nmol/L | 5 nmol/L | 42 nmol/L | 3 nmol/L | 20 nmol/L | 29 nmol/L | 9 nmol/L | – | – | – |
| CCc1c(C)c(F)cc2nc3c(c(CN)c12)Cn1c-3cc2c(c1=O)COC(=O)[C@]2(O)CC [Compound 10, (S)-11-(aminomethyl)-4,10-diethyl-8-fluoro-4-hydroxy-9-methyl-1,12-dihydro-14H-pyrano[3′,4′:6,7]indolizino[1,2-b]quinoline-3,14(4H)-dione] | – | – | – | – | – | – | – | – | – | – | – | – | 95 nmol/L | 33 nmol/L | IC50 ([1]; read-out: SU-DHL-4 IC50, Table 28, CPT free drugs, B-lymphocyte cancer cells SU-DHL4, 96 h, CellTiter-Glo): 15 nmol/L; IC50 ([2]; read-out: DEL IC50, Table 28, CPT free drugs, anaplastic large cell lymphoma cells DEL, CellTiter-Glo): 7 nmol/L; IC50 (Ls174T cells; 96 h, read-out: Ls174T IC50, Table 28, CPT free drugs, Ls174T cells, 96 h, CellTiter-Glo): 33 nmol/L; IC50 ([3]; read-out: DELBVR IC50, Table 28, CPT free drugs, anaplastic large cell lymphoma cells DELBVR, CellTiter-Glo): 15 nmol/L; IC50 ([4]; read-out: L540cy IC50, Table 28, CPT free drugs, Hodgkin's lymphoma cells L540cy, CellTiter-Glo): 51 nmol/L; IC50 ([5]; read-out: 786-O IC50, Table 28, CPT free drugs, renal carcinoma cells 786-O, 96 h, CellTiter-Glo): 54 nmol/L; IC50 ([6]; read-out: MDAMB231 IC50, Table 28, CPT free drugs, breast cancer cells MDA-MB-231, 96 h, CellTiter-Glo): 59 nmol/L; IC50 ([8]; read-out: BxPC3 IC50, Table 28, CPT free drugs, pancreatic cancer cells BxPC3, 96 h, CellTiter-Glo): 64 nmol/L; IC50 ([9]; read-out: MOLM-13 IC50, Table 28, CPT free drugs, acute myeloid leukemia cells MOLM-13, 96 h, CellTiter-Glo): 149 nmol/L; IC50 ([10]; read-out: Karpas299 IC50, Table 28, CPT free drugs, anaplastic large cell lymphoma cells Karpas299, 96 h, CellTiter-Glo): 57 nmol/L |
| CC[C@@]1(O)C(=O)OCc2c1cc1n(c2=O)Cc2c-1nc1cc3c(cc1c2CNCCCS(C)(=O)=O)OCO3 [Compound 7c] | – | – | – | – | – | – | – | – | – | – | – | – | 91 nmol/L | 2 nmol/L | IC50 ([1]; read-out: SU-DHL-4 IC50, camptothecin free drug, 96 h): 3 nmol/L; IC50 ([2]; read-out: DEL IC50, camptothecin free drug, 96 h): 1 nmol/L; IC50 (Ls174T cells; 96 h, read-out: Ls174T IC50, camptothecin free drug, 96 h): 4 nmol/L; IC50 ([3]; read-out: DELBVR IC50, camptothecin free drug, 96 h): 2 nmol/L; IC50 ([4]; read-out: L540cy IC50, camptothecin free drug, 96 h): 2 nmol/L; IC50 ([5]; read-out: 786-O IC50, camptothecin free drug, 96 h): 5 nmol/L; IC50 ([6]; read-out: MDAMB231 IC50, camptothecin free drug, 96 h): 31 nmol/L; IC50 ([8]; read-out: BxPC3 IC50, camptothecin free drug, 96 h): 5 nmol/L; IC50 ([9]; read-out: MOLM-13 IC50, camptothecin free drug, 96 h): 4 nmol/L; IC50 ([10]; read-out: Karpas299 IC50, camptothecin free drug, 96 h): 5 nmol/L |
| CC[C@@]1(O)C(=O)OCc2c1cc1n(c2=O)Cc2c-1nc1ccc3c(c1c2CN)CCC3 [Compound 2u] | 4 nmol/L | 2 nmol/L | 5.3 nmol/L | 2 nmol/L | 5 nmol/L | 10 nmol/L | 6 nmol/L | 61 nmol/L | 4 nmol/L | 23 nmol/L | 48.3 nmol/L | 7 nmol/L | – | – | – |
